Results taken from patent publication US6673931B2, “Naphthalenyl piperidines as renin inhibitors” (Hoffman-La Roche Inc., priority 1999, dated 2004).
Structures can show the parent of a compound that is named as a salt.

Target: T1, human renin (Homo sapiens, UniProt P00797)
T1 sequence (P00797 67-406): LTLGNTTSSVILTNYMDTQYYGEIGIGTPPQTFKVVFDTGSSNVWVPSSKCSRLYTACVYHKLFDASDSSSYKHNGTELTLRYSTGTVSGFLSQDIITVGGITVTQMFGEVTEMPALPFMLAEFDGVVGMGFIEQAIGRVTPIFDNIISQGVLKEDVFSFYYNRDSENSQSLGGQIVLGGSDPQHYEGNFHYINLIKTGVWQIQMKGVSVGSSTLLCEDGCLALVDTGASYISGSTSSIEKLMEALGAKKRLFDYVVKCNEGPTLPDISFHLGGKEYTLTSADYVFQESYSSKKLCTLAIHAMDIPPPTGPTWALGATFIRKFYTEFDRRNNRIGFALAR
Assay: In vitro test with pure human renin (angiotensin I production via RIA)
Type: biochemical
Details: human tetradecapeptide renin substrate (hTD), pH 7.4, three hours at 37° C.
Procedure: The tests can be carried out in analogy to those described by D. T. Pals et al. in Hypertension Vol. 8, 1105-1112 (1986) or J. Boger et al. in J. Med. Chem. 28, 1779-1790 (1985) or J. F. Dellaria et al. in J. Med. Chem. 30,2137-2144 (1987) or T. Kokubu et al. in Biochem. Biophys. Res. Commun. 118, 929-933 (1984):
In vitro test with pure human renin:
The test is carried out in Eppendorf test tubes. The incubation mixture consists of (1) 100 μl of human renin in buffer A (0.1 M sodium phosphate solution, pH 7.4, containing 0.1% bovine serum albumin, 0.1% sodium azide and 1 mM ethylenediaminetetraacetic acid), sufficient for a renin activity of 2-3 ng of angiotensin I/ml/hr.; (2) 145 μl of buffer A: (3) 30 μl of 10 mM human tetradecapeptide renin substrate (hTD) in 10 mM hydrochloric acid: (4) 15 μl of dimethyl sulphoxide with or without inhibitor and (5) 10 μl of a 0.03 molar solution of hydroxyquinoline sulphate in water.
The samples are incubated for three hours at 37° C. and, respectively, 4° C. in triplicate. 2×100 μl samples per test tube are used in order to measure the production of angiotensin I via RIA (standard radioimmunoassay; clinical assay solid phase kit). Cross reactivities of the antibody used in the RIA are: angiotensin I 100%; angiotensin II 0.0013%; hTD (angiotensin I-Val-Ile-His-Ser-OH) 0.09%. The production of angiotensin I is determined by the difference between the test at 37° C. and that at 4° C.
The following controls are carried out:
(a) Incubation of hTD samples without renin and without inhibitor at 37° C. and 40° C. The difference between these two values gives the base value of the angiotensin I production.
(b) Incubation of hTD samples with renin, but without inhibitor at 37° C. and 4° C. The difference between these values gives the maximum value of the angiotensin I production.
In each sample the base value of the angiotensin I production is subtracted from the angiotensin I production which is determined. The difference between the maximum value and the base value gives the value of the maximum substrate hydrolysis (=100%) by renin.
The results are given as IC50 values which denote the concentration of the inhibitor at which the enzymatic activity is inhibited by 50%. The IC50 values are determined from a linear regression curve from a logit-log plot.

SMILES	IC50 [pM]
COc1cc(CO[C@H]2CNC[C@@H](OC[C@H](O)CO)[C@@H]2c2ccc(OCCCOc3ccccc3[N+](=O)[O-])cc2)cc2ccccc12 [C, (R)-3-[(3S,4R,5R)-5-(4-methoxy-naphthalen-2-ylmethoxy)-4-[4-[3-(2-nitro-phenoxy)-propoxy]-phenyl]-piperidin-3-yloxy]-propane-1,2-diol]	80
COC[C@@H](O)CO[C@@H]1CNC[C@H](OCc2cc(OC)c3ccccc3c2)[C@H]1c1ccc(OCCCOCc2ccccc2OC)cc1 [A, (R)-1-methoxy-3-[(3S,4R,5R)-4-[4-[3-(2-methoxy-benzyloxy)-propoxy]-phenyl]-5-(4-methoxy-naphthalen-2-ylmethoxy)-piperidin-3-yloxy]-propan-2-ol]	60
COc1ccccc1COCCCOc1ccc([C@H]2[C@H](Cn3ccnc3)CNC[C@@H]2OCc2cc(OC)c3ccccc3c2)cc1 [E, (3S,4R,5R)-3-imidazol-1-ylmethyl-4-[4-[3-(2-methoxy-benzyloxy)-propoxy]-phenyl]-5-(4-methoxy-naphthalen-2-ylmethoxy)-piperidine dihydrochloride]	70

These reach a lower IC50. Values come first.

IC50 [pM]	SMILES
20	COc1ccccc1COCCCOc1ccc([C@H]2[C@H](CO)CNC[C@@H]2OCc2cc(OC)c3ccccc3c2)cc1 [D, (3S,4R,5R)-[4-[4-[3-(2-methoxy-benzyloxy)-propoxy]-phenyl]-5-(4-methoxy-naphthalen-2-ylmethoxy)-piperidin-3-yl]-methanol]
30	COCCOC[C@@H](O)CO[C@@H]1CNC[C@H](OCc2cc(OC)c3ccccc3c2)[C@H]1c1ccc(OCCCOCc2ccccc2OC)cc1 [B, (R)-1-[(3S,4R,5R)-4-[4-[3-(2-methoxy-benzyloxy)-propoxy]-phenyl]-5-(4-methoxy-naphthalen-2-ylmethoxy)-piperidin-3-yloxy]-3-(2-methoxy-ethoxy)-propan-2-ol]
